“And” between values parts separate entries of the source, which are not always exact repeats. Identical values can stand only once. “Also recorded” adds a separate entry of the source. Counter-ions that a name gives are not always drawn. Like-named read-outs stand apart in the source and are kept apart here.
Experiments:
human VDR [1] = target: T1, human VDR (Homo sapiens, UniProt P11473); test: Transient transactivation assay (CYP24-Luc), agonist mode, HEK293T cells; conditions: for Derived Efficacy (fold induction): top asymptote of Hill or Gain-Loss model, maximum response
T1 sequence (P11473 1-427): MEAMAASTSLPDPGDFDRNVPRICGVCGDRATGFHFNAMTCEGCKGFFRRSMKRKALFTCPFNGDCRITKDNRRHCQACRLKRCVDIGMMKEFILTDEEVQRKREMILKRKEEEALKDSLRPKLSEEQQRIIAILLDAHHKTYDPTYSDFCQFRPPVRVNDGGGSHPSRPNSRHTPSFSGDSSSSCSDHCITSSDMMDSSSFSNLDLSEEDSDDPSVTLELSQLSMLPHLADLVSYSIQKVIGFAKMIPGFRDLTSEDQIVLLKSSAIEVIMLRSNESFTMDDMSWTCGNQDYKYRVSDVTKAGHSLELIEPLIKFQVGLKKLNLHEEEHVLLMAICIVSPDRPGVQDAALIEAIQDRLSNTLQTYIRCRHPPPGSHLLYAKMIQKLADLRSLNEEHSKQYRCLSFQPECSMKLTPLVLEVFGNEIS

[2] = target: human VDR ligand-binding domain; design: method as in PMID 21543282; conditions: agonist mode; Tox21 qHTS data set; * = range of values; cited from earlier work
human VDR [3] = target: T1, human VDR
[4] = target: T2, VDR:RXR, VDR:SRC-1 and VDR:NCoR interactions (Homo sapiens, UniProt P11473); test: Mammalian 2-hybrid assay, summary in words of VDR coregulator interactions; type: cell-based
T2 sequence (P11473 1-427): T1 sequence (P11473 1-427)

human VDR [5] = target: T1, human VDR; test: Transient transactivation assay (CYP24-Luc), antagonist mode with 3 nM 1,25D3, HEK293T cells; type: cell-based
[6] = target: human VDR ligand-binding domain; design: method as in PMID 21543282; conditions: read-out: Tox21 IC 50, cited from earlier work
VDR:NCoR = target: T3, VDR:NCoR (Homo sapiens, UniProt P11473); test: Mammalian 2-hybrid assay, recruitment of corepressor NCoR by VDR, Cos7 cells
T3 sequence (P11473 1-427): T1 sequence (P11473 1-427)

VDR:SRC-1 = VDR:SRC-1 (Homo sapiens, UniProt P11473); test: Mammalian 2-hybrid assay, recruitment of coactivator SRC-1 by VDR, Cos7 cells; conditions: agonists; -RXR (empty pSG5); percentage of vitamin D3; conc. in Fig 5: ergocalciferol 60, lithocholic acid 50, calcipotriol 0.05, ethylphenol compound 40, 9 aminoacridine 50, tamoxifen citrate 20 μM
[7] = Derived AC50 (Transient transactivation assay), agonist mode, HEK293T cells, CYP24A1-Luc
[8] = agonists, orthogonal transient transactivation assay, HEK293T cells
[9] = read-out: Derived IC 50 (Transient transactivation assay)
[10] = antagonists, transient transactivation assay in the presence of 3 nM 1,25D3
[11] = experimental AC50 as listed in Fig 4a, antagonists, read-out: AC50
[12] = inhibition of 3 nM 1,25D3-induced response, HEK293T cells, unit given in Fig 3 legend, read-out: Derived IC 50 (Transient transactivation assay)
[13] = top asymptote of Hill or Gain-Loss model, maximum response
[14] = antagonist mode, Tox21 qHTS data set
[15] = AC50 (μM), experimental AC50 as listed in Fig 4a, agonists
[16] = Derived IC 50 (Transient transactivation assay)
[17] = read-out: Derived AC50 (Transient transactivation assay)

## Cc1cc(=O)oc2cc(N(C)C)ccc12 [7-(Dimethylamino)-4-methylcoumarin]
Human VDR [1]; [7]
  AC50: 0.793 µM
Human VDR [1]; [8]
  Activity: Active
Human VDR [1]
  Derived Efficacy (fold induction): 17.3255 fold induction
[2]
  AC50: 2880 to 21500 nM

## c1csc(-c2ccc(-c3cccs3)s2)c1 [Alpha-Terthiophene]
Human VDR [3]
  Derived Efficacy (fold induction): 19.9132 fold induction
[4]
  pattern of VDR:coregulator interaction facilitated by the ligand: Interaction between VDR:RXR only in the absence of full length SRC-1
Human VDR [1]; [7]
  AC50: 0.305 µM
Human VDR [1]; [8]
  Activity: Active
[2]
  AC50: 15700 nM

## Cadmium dinitrate
Human VDR [5]
  Activity: Active
  Derived Efficacy (fold inhibition): 82.6111 fold inhibition
[4]
  pattern of change of 1,25D3 induced VDR:coregulator interaction: enhanced recruitment of VDR:RXR and VDR:SRC-1 in both the presence and absence of co-expressed coregulators
[6]
  IC50: 167 nM

## O=S(=O)(O)c1ccc2ccc(S(=O)(=O)O)cc2c1 [2,7 Naphthalene disulfonic acid]
Human VDR [1]; [7]
  AC50: 13.8 µM
Human VDR [1]; [8]
  Activity: Active
Human VDR [1]
  Derived Efficacy (fold induction): 14.1669 fold induction
[2]
  AC50: 14500 nM

## CC/C(=C(\c1ccccc1)c1ccc(OCCN(C)C)cc1)c1ccccc1 [Tamoxifen citrate, reference compound]
[2]
  AC50: 33000 to 56000 nM

## [OH-].c1cc[c]([Sn+]([c]2ccccc2)[c]2ccccc2)cc1 [Triphenyltin hydroxide]
Human VDR [5]
  Activity: Active
  Derived Efficacy (fold inhibition): 89.3748 fold inhibition
Human VDR [5]; [9]
  IC50: 45.4 nM
[4]
  pattern of change of 1,25D3 induced VDR:coregulator interaction: consistently attenuate recruitment VDR:RXR and VDR:SRC-1 in both the presence and absence of co-expressed coregulators
[6]
  IC50: 92.9 nM

## CN(C)C(=S)SSC(=S)N(C)C [Thiram]
Human VDR [5]; [10]
  Activity: Active
Human VDR [5]; [11]
  AC50: 479 nM
Human VDR [5]; [12]
  IC50: 420 nM and 428 nM
Human VDR [5]; [13]
  Derived Efficacy (fold inhibition): 76.1807 fold inhibition
VDR:NCoR
  Fold Change (pMNCoR + EpSG5): 1.7

## O=C([O-])c1ccccc1-c1c2ccc(=O)cc-2oc2cc([O-])ccc12.[Na+].[Na+] [Fluorescein sodium, reference compound]
Human VDR [5]; [13]
  Derived Efficacy (fold inhibition): 101.7383 fold inhibition
[6]; [14]
  IC50: 356 nM

## CCc1cc(Cc2cc(CC)cc(C(C)(C)C)c2O)c(O)c(C(C)(C)C)c1 [2,2′-methylenebis(6-tert-butyl-4-ethylphenol)]
Human VDR [1]; [15]
  AC50: 35.4 µM
Human VDR [1]; [7]
  AC50: 36.8 µM
Human VDR [1]; [8]
  Activity: Active
Human VDR [1]
  Derived Efficacy (fold induction): 89.3748 fold induction
[2]
  AC50: 52600 nM
VDR:SRC-1
  % Induction, pMSRC-1NR + EpSG5: 7.2%

## [Au+].[C-]#N.[C-]#N.[K+] [Potassium dicyanoaurate]
Human VDR [5]
  Activity: Active
  Derived Efficacy (fold inhibition): 76.1807 fold inhibition
Human VDR [5]; [9]
  IC50: 98.5 nM
[4]
  pattern of change of 1,25D3 induced VDR:coregulator interaction: selectively inhibited VDR:SRC-1 interactions only in the presence of full length wild type RXR
[6]
  IC50: 91.2 nM

## O=C(O)CCCc1ccc(N(CCCl)CCCl)cc1 [Chlorambucil, reference compound]
Human VDR [5]
  Activity: Active
  Derived Efficacy (fold inhibition): 68.5251 fold inhibition
Human VDR [5]; [16]
  IC50: 21 nM
[6]
  IC50: 0.058 nM
VDR:NCoR
  Fold Change (pMNCoR + EpSG5): 0.9

## C[C@@H]1O[C@@H](O[C@@H]2C=C3CC[C@@H]4[C@H](CC[C@]5(C)[C@@H](c6ccc(=O)oc6)CC[C@]45O)[C@@]3(C)CC2)[C@H](O)[C@H](O)[C@H]1O [Proscillaridin, reference compound]
Human VDR [5]
  Activity: Active
  Derived Efficacy (fold inhibition): 14.1669 fold inhibition
Human VDR [5]; [16]
  IC50: 1890 nM and 1900 nM
[4]
  pattern of change of 1,25D3 induced VDR:coregulator interaction: selectively inhibited VDR:SRC-1 interactions only in the presence of full length wild type RXR; also recorded: enhanced the interaction between VDR:RXR only in the presence of co transfected SRC-1
[6]
  IC50: 43.4 nM
VDR:NCoR
  Fold Change (pMNCoR + EpSG5): 2.8

## Nc1ccc2cc3ccc(N)cc3nc2c1 [Proflavine hydrochloride]
Human VDR [5]; [10]
  Activity: Active
Human VDR [5]; [11]
  AC50: 668 nM
Human VDR [5]; [12]
  IC50: 555 nM
Human VDR [5]; [13]
  Derived Efficacy (fold inhibition): 68.3825 fold inhibition
[6]; [14]
  IC50: 3410 nM

## N#C/C(=C1/SCC(c2ccccc2Cl)S1)n1ccnc1 (centres unmarked) [Lanoconazole, reference compound]
[2]
  AC50: 21100 nM

## CCC[CH2][Sn]([Cl])([Cl])[CH2]CCC [Dibutyltin dichloride]
Human VDR [5]
  Activity: Active
  Derived Efficacy (fold inhibition): 20.5748 fold inhibition
Human VDR [5]; [9]
  IC50: 540 nM and 542 nM
[4]
  pattern of change of 1,25D3 induced VDR:coregulator interaction: consistently attenuate recruitment VDR:RXR and VDR:SRC-1 in both the presence and absence of co-expressed coregulators
[6]
  IC50: 82.3 nM

## COC(=O)c1nc(Cl)c(Cl)nc1N [Methyl 3-amino-5,6-dichloropyrazine-2-carboxylate]
Human VDR [1]; [7]
  AC50: 0.446 µM
Human VDR [1]; [8]
  Activity: Active
Human VDR [1]
  Derived Efficacy (fold induction): 44.5165 fold induction
[2]
  AC50: 8780 nM

## Tributyltin chloride
[6]
  IC50: 959 nM

## COc1cccc2c1cc([N+](=O)[O-])c1c(C(=O)O)cc3c(c12)OCO3 [Aristolochic acid]
Human VDR [5]
  Activity: Active
  Derived Efficacy (fold inhibition): 76.1807 fold inhibition
Human VDR [5]; [16]
  IC50: 820 nM and 827 nM
[4]
  pattern of change of 1,25D3 induced VDR:coregulator interaction: enhanced the interaction between VDR:SRC-1 only in the absence of RXR
[6]
  IC50: 7320 nM
VDR:NCoR
  Fold Change (pMNCoR + EpSG5): 25.8

## Nc1nc(N)c2nc(-c3ccccc3)c(N)nc2n1 [Triamterene, reference compound]
Human VDR [1]; [15]
  AC50: 12.2 µM
Human VDR [1]; [7]
  AC50: 3.07 µM
Human VDR [1]; [8]
  Activity: Active
Human VDR [1]
  Derived Efficacy (fold induction): 14.7020 fold induction
[2]
  AC50: 5300 to 42100 nM
VDR:SRC-1
  % Induction, pMSRC-1NR + EpSG5: 0.9%

## O=S(=O)(O)c1ccccc1 [Benzenesulfonic acid]
[4]
  pattern of VDR:coregulator interaction facilitated by the ligand: did not facilitate VDR:RXR or VDR:SRC-1 interactions under any condition
Human VDR [1]
  Activity: Active
  Derived Efficacy (fold induction): 13.6777 fold induction
Human VDR [1]; [17]
  AC50: 0.772 µM
[2]
  AC50: 9900 nM

## Cc1cc(O)c2ccccc2c1O [Menadiol, reference compound]
Human VDR [5]; [10]
  Activity: Active
Human VDR [5]; antagonists, transient transactivation assay in the presence of 3 nM 1,25D3, listed as menadiol
  Activity: moderate to marked synergistic activity
Human VDR [5]; [12]
  IC50: 3490 nM and 3500 nM
Human VDR [5]; read-out: AC50
  AC50: 45800 nM
Human VDR [5]; [13]
  Derived Efficacy (fold inhibition): 101.7383 fold inhibition
Human VDR [1]; [8]
  Activity: very weak agonist activity
[6]; [14]
  IC50: 979 nM

## Cc1cccc2c1cc1ccc3cccc4ccc2c1c34 [7 methyl benzo (a) pyrene]
Human VDR [3]
  Derived Efficacy (fold induction): 19.1624 fold induction
[4]
  pattern of VDR:coregulator interaction facilitated by the ligand: Interaction between VDR:RXR only in the presence of co transfected SRC-1
Human VDR [1]
  Activity: Active
Human VDR [1]; Derived AC50 (Transient transactivation assay)
  AC50: 10.6 µM
[2]
  AC50: 2540 nM

## C[C@]1(Cn2ccnn2)[C@H](C(=O)O)N2C(=O)C[C@H]2S1(=O)=O [Tazobactam sodium, reference compound]
Human VDR [5]; [10]
  Activity: Active
Human VDR [5]; [12]
  IC50: 283 nM
Human VDR [5]; [13]
  Derived Efficacy (fold inhibition): 79.1108 fold inhibition
[6]; [14]
  IC50: 1980 nM

## C=C1CC[C@H](O)C/C1=C/C=C1\CCC[C@]2(C)[C@@H]([C@H](C)/C=C/[C@H](C)C(C)C)CC[C@@H]12 [Ergocalciferol, reference compound]
[2]
  AC50: 4280 to 9020 nM

## O=C1C(Cl)=C(Cl)C(=O)c2ccccc21 [Dichlone]
Human VDR [5]
  AC50: 19800 nM
  Activity: moderate to marked synergistic activity; also recorded: Active
  Derived Efficacy (fold inhibition): 86.9798 fold inhibition
Human VDR [5]; [16]
  IC50: 240 nM and 243 nM
Human VDR [1]
  Activity: very weak agonist activity
VDR:NCoR
  Fold Change (pMNCoR + EpSG5): 1.1

## C=C1/C(=C\C=C2/CCC[C@]3(C)[C@@H]([C@H](C)/C=C/[C@@H](O)C4CC4)CC[C@@H]23)C[C@@H](O)C[C@@H]1O [Calcipotriol, reference compound]
Human VDR [1]; [8]
  Activity: Active
[2]
  AC50: 0.294 nM
VDR:SRC-1
  % Induction, pMSRC-1NR + EpSG5: 142.9%

## O=S(=O)(O)c1ccccc1C=Cc1ccc(-c2ccc(C=Cc3ccccc3S(=O)(=O)O)cc2)cc1.[Na].[Na] [Disodium 4,4′-bis(2-sulfostyryl) biphenyl]
Human VDR [3]
  Derived Efficacy (fold induction): 9.4578 fold induction
[4]
  pattern of VDR:coregulator interaction facilitated by the ligand: did not facilitate VDR:RXR or VDR:SRC-1 interactions under any condition
Human VDR [1]
  Activity: Active
Human VDR [1]; [17]
  AC50: 0.394 µM
[2]
  AC50: 18000 nM

— PMC5995905, “Confirmation of high-throughput screening data and novel mechanistic insights into VDR-xenobiotic interactions by orthogonal assays” (Scientific Reports, 2018)
